This is an account of results in patent US20080015147A1, “Method for inhibiting neuronal cell death” (priority 2006, published 2008).

The subject of test [1] is N38 cells immortalized mouse hypothalamic cell line. Briefly: Cell morphology analysis (small round necrotic cells). In kind it is cell-based. The settings on record: for number of small round (necrotic) cells, vehicle vs TCAP-treated: 48 hrs; for number of rounded cells relative to vehicle: 72 hrs. Here is the method:
The effect of TCAP-1 on cell morphology was conducted using the N38 cells immortalized mouse hypothalamic cell line(Belsham et al, 2004). Cells were grown in six-well culture plate with 2 ml of Dulbeco's Modified Eagle Medium (DMEM) with high glucose, […], 25 mM HEPES buffer, pyridoxine hydrochloride in the absence of sodium pyruvate, 5 ml penicillin with 10% fetal bovine serum (FBS) at pH 7.4 (all from Gibco-Invitrogen, Burlington, Canada).
At 24 and 48 hrs, the medium was replaced with medium buffered at pH 6.8, 7.4, 8.0 or 8.4. Half of the cell groups received (2×10^−7 M) TCAP-1, whereas the other half received phosphate buffered saline (PBS) pH 7.4 containing 8 g NaCl, 0.2 g KCl, 1.4 g Na2HPO4, 0.2 g KH2PO4 in. 800 mL ddH2O. For all groups, 4 replicates were run. Digital pictures were taken at 24, 48 and 72 hrs using an Olympus IX&1 inverted microscope at a magnification of 200× and analyzed using LabWorks 4.0 Image Acquisition and Analysis software (UltraViolet Products Ltd).

For test [2], the system named is N38 cells. Briefly: Fluorescent microscopy of necrosis and apoptosis markers. The settings on record: 48 hrs. The class given is cell-based, mouse. Here is the method: N38 cells were cultured on poly-D-Lysine treated coverslips (VWR, Mississauga) in each of the four pH condition, and cells were washed twice with PBS, each fluorochrome was added to each well: 5 μl Fluorescein (FITC)-Annexin V in Tris EDTA buffer containing 0.1% BSA (Bovine serum albumin) and 0.1% NaN3, pH 7.5, 5 μl rhodamine EtD-III 200 μM in PBS and 5 μl 4′,6-Diamidino-2-phenylindole (DAPI) Hoechst 33342 5 μg/mL in PBS (Biotium, Inc. Hayward). The samples were incubated in the dark for 15 min, then washed before being placed on slides. The cells were viewed under a Leica DM4500 inverted fluorescent microscope and digitally analyzed using OpenLab software.
Annexin V labelled with fluorescein (FITC) was used to identify apoptotic cells in green. Ethidium homodimer III (EtD-III) is a positively charged nucleic acid probe, which is impermeable to live or apoptotic cells but stains necrotic cells with red fluorescence (rhodamine) and Hoechst 3342 (4′,6-Diamidino-2-phenylindole) (DAPI) emits bright blue fluorescence upon binding to DNA in living cells.

Test [3] has as its system N38 cells. Briefly: Bromodeoxyuridine (BrdU) incorporation assay. In kind it is cell-based, mouse. The following applies: 24 or 48 hrs; pH extremes. The source says:
The evaluation of cell cycle progression is important when assessing the viability of a cell population. The cell cycle is a sequence of stages that a cell passes through between one division and the next. The cell cycle oscillates between mitosis and the interphase, which is divided into G, S, and G 2. In the G phase there is a high rate of biosynthesis and growth; in the S phase there is the doubling of the DNA content as a consequence of chromosome replication; in the G 2 phase the final preparations for cell division (cytokinesis) are made (Raza, 1985). In order to determine whether TCAP was increasing cell cycle efficiency, a bromodeoxyuridine (BrdU) non-isotopic enzyme immunoassay was conducted (Calbiochem, Canada). BrdU incorporation into newly synthesized DNA of actively proliferating cells enables one to quantify cell cycle progression and the population of cells entering the S phase(Gratzner, 1982; Raza, 1985).
N38 cells were grown in a 96-well culture plate using 100 μl at an initial density of 2×10^5 cells/ml. Controls consisted of a blank, one well containing only DMEM with no cells and background, and one well with cells but with no BrdU label added. […] Absorbance was measured on a SPECTRAmax Microplate spectrophotometer at dual wavelengths at 450-540 nm.

A further test deals with superoxide dismutase. Briefly: Superoxide dismutase western blot. The class given is cell-based, mouse. Background: A western blot detects proteins with antibodies after separation by electrophoresis.
For test [4], the system named is superoxide copper chaperone (CCSD). Briefly: Superoxide copper chaperone (CCSD) expression by real-time PCR. The class given is cell-based, mouse. The following applies: pH 8.4.
Another test deals with catalase. Briefly: Catalase assay on pH treated cells. In kind it is cell-based, mouse. As to the method: A catalase assay was performed on the pH treated cells in order to determine whether TCAP-1 was conferring survivability to the cells via upregulation of catalase and thus increasing H2O 2 breakdown into H2O and O2 (FIG. 9B). […] Bovine liver was also assayed as a positive control.

Regarding “teneurin C-terminus associated peptide [TCAP-1]”, the “number of small round (necrotic) cells, vehicle vs TCAP-treated” value in test [1] (pH 6.8, p<0.05) is recorded as “significant increase in the number of small round cell types (necrotic cells) in the vehicle-treated cultures”; in test [1] (pH 8.0, p<0.001), “significant increase in the number of small round cell types (necrotic cells) in the vehicle-treated cultures”; in test [1] (pH 8.4, p<0.001), “significant increase in the number of small round cell types (necrotic cells) in the vehicle-treated cultures”. Moreover, the observable morphological changes entry in test [1] (pH 7.4, TCAP-1 2×10^−7 M) is “did not induce any observable morphological changes”. In addition, the “number of rounded cells relative to vehicle” value in test [1] (pH 8.0, p<0.001) is reported as “significantly decreased the number of rounded cells”; in test [1] (pH 8.4, p<0.001) it was “significantly decreased the number of rounded cells”. Moreover, the “number of rhodamine-fluorescing (necrotic) cells” value in the test on N38 cells [2] (pH 6.8) was “decreased the number of rhodamine-fluorescing cells”; in the test with N38 cells [2] (pH 6.8, listed as TCAP), “significantly decreased the amount of necrotic cells”; with N38 cells [2] (pH 8.0), “decreased the number of rhodamine-fluorescing cells”; in the test on N38 cells [2] (pH 8.0, listed as TCAP), “significantly decreased the amount of necrotic cells”; with N38 cells [2] (pH 8.4) it was “decreased the number of rhodamine-fluorescing cells”; with N38 cells [2] (pH 8.4, listed as TCAP), “significantly decreased the amount of necrotic cells”. Further, the BrdU incorporation result in the test on N38 cells [3] is “no significant results”. The “superoxide dismutase protein expression” value in the test on superoxide dismutase (pH 6.8) and in the test on superoxide dismutase (pH 7.4) was “no significant differences in the expression of the superoxide dismutase protein” in each case. The “superoxide dismutase protein levels” value in the test on superoxide dismutase (pH 8.0, p<0.05) was “reduced the pH-induced decline in superoxide dismutase levels”; with superoxide dismutase (pH 8.4, p<0.01), “reduced the pH-induced decline in superoxide dismutase levels”. For the same substance, the “CCSD expression increase over vehicle treated cells” value in test [4] is listed as around 4.5 fold. In addition, the “catalase levels vs vehicle” value is “no significant effects” in the test with catalase (pH 6.8); “no significant effects” in the test on catalase (pH 7.4); “significant TCAP-1 effect” with catalase (pH 8.0, p<0.01); “significantly increased catalase levels” in the test on catalase (pH 8.4, p<0.001).
